Laboratory results from article PMC6290463 (The FEBS journal, 2012).
Non-standard residues stand in square brackets, D forms with d. Residues, ends and D or L forms follow the SMILES beside them. *: point of attachment. Sta = CC(C)C[C@H](N)[C@@H](O)CC(=O)O; Isovaleryl = CC(C)CC(=O)*

Legend:
XMRV PR [1] = target: T1, XMRV PR (Xenotropic MuLV-related virus VP62, UniProt A1Z651); experiment: HPLC-based cleavage assay with peptide RSLLY-PALTP; format: biochemical; settings: read-out: XMRV PR Ki; cited from earlier work
XMRV PR [2] = target: T1, XMRV PR; settings: previous study; cited from earlier work
XMRV PR [3] = target: T1, XMRV PR; settings: PDB 3SM1; cited from earlier work
HIV-1 PR = HIV-1 PR (Human immunodeficiency virus type 1 group M subtype B, UniProt P04585, C555A/C583A/L521I/L551I/Q495K); experiment: Urea dissociation of HIV-1 PR; format: physicochemical; settings: half-maximal velocity; urea 0–4.0 M, 5.5 nM HIV-1 PR, 0.3 mM substrate, HPLC

T1 sequence (A1Z651 533-657): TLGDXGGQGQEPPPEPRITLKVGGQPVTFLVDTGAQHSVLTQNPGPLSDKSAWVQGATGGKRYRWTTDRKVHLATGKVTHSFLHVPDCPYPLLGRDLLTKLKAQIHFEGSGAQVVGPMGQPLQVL

In the case of CC(C)CC(=O)N[C@H](C(=O)N[C@H](C(=O)N[C@@H](CC(C)C)[C@@H](O)CC(=O)N[C@@H](C)C(=O)N[C@@H](CC(C)C)[C@@H](O)CC(=O)O)C(C)C)C(C)C [Pepstatin A, pepstatin A (isovaleryl-Val-Val-Sta-Ala-Sta)] (Isovaleryl-VV[Sta]A[Sta]-OH), the Ki (XMRV PR [1]) is listed as 1440 nM.

In the case of CC(C)CC(=O)N[C@H](C(=O)N[C@H](C(=O)N[C@@H](CC(C)C)[C@@H](O)CC(=O)N[C@@H](C)C(=O)N[C@@H](CC(C)C)[C@@H](O)CC(=O)O)C(C)C)C(C)C [Pepstatin A, pepstatin A] (Isovaleryl-VV[Sta]A[Sta]-OH), the “Inhibition of XMRV PR (in words)” value (XMRV PR [2]) is given as “only a very weak inhibitor of XMRV PR” and the “binding mode to XMRV PR (crystal structure)” value (XMRV PR [3]) is given as “two inhibitor molecules binding to the enzyme, leaving the catalytic water in place”.

For “HIV-1 PR: Purified HIV-1 PR, containing stabilizing mutations (Q7K, L33I, L63I, C67A and C95A)”, the “Urea dissociation (UC50)” value (HIV-1 PR) was 1.47 M.
